This note sets out measurements from patent publication US12551479B2, “Acyl-protein thioesterase inhibitor for the treatment and/or prevention of Huntington's disease” (UNIVERSITÉ GRENOBLE ALPES, priority 2019, dated 2026).

The experiment deals with StHdh^Q111/Q111 cells. Nature of the experiment: RUSH system: GPI-SBP-mCherry trafficking from endoplasmic reticulum to Golgi and plasma membrane. Format: cell-based, mouse. The following applies: StHdh^Q111/Q111 cells treated 1 hour with 10 μM. As to the method: The RUSH plasmid (Boncompain et al., 2012) is a bicistronic plasmid (SEQ ID NO: 2) allowing the expression of two parts of the system: the reticulum-specific anchor (KDEL-streptavidin), and the reporter part (GPI-SBP-mCh). The addition of biotin in the extracellular medium (40 μM) induces the unhooking of the reporter part of the anchor, thus allowing to follow the intracellular trafficking in a synchronized way within a cell population from the endoplasmic reticulum.
For striatal StHdh cells, acute treatment was performed at 10 μM for 1 hour before and during the acquisition time. For neurons within the microchambers, treatments were started at DIV2 until DIV12 every day at 1 μM in each compartment of the microfluidic device.
The inventors used the Retention Using Selective Hooks (RUSH) system to study intracellular dynamics from the ER to the plasma membrane in Huntington's disease condition (FIG. 1A). RUSH allows tracking the synchronous release of a reporter molecule from specific intracellular compartments. In the present experiment, the inventors followed the release of glycosylphosphatidylinositol (GPI)-anchored fluorescence protein mCherry, and fused to streptavidin-binding peptide (SBP) that was retained into the ER compartment by the interaction with a “hook” protein composed of the KDEL motif fused to streptavidin. In the absence of biotin, the GPI-SBP-mCherry localizes at the ER (FIG. 1A). Addition of biotin to the cells expressing GPI-SBP-mCherry and KDEL-streptavidin causes a synchronous release of the GPI-SBP-mCherry reporter from the hook which then migrates to the Golgi apparatus and later to the plasma membrane.
To study these dynamics in the context of Huntington's disease, the inventors transfected the GPI-SBP-mCherry-KDEL-streptavidin construct as shown in SEQ ID NO:2 into immortalized striatal cells from Hdh^Q111/Q111 and Hdh^Q7/Q7 mice, referred to as StHdh^Q111/Q111 and StHdh^Q7/Q7 cells respectively. They then monitored GPI-SBP-mCherry trafficking by real-time imaging for 90 minutes. To assess intracellular trafficking dynamics, they quantified the kinetics of appearance and disappearance of mCherry fluorescence in the Golgi apparatus over time (FIGS. 1B and C). Shortly after biotin addition, GPI leaves the ER and moves to the Golgi apparatus. The inventors quantified fluorescence at the Golgi and observed that in StHdh^Q7/Q7 cells, the peak fluorescence was at 16.6 minutes, whereas it was delayed to 23.6 minutes in StHdh^Q111/Q111 cells (FIG. 1B). Their observations indicate a reduced trafficking of GPI from the ER to the Golgi apparatus as well as prolonged retention of GPI in the Golgi as evidenced by a longer period of GPI fluorescence in the Golgi apparatus.

For `O=C(CN1CCN(C(=O)c2ccco2)CC1)Nc1cc(C(F)(F)F)ccc1Cl` [ML-348], the “time after biotin addition for the appearance of the fluorescence peak in the Golgi” value (without treatment 23.2-23.3 min, StHdh^Q7/Q7 16.6 min) was determined as 18.9 min. For the same compound, for the setting “without treatment 24-25.4 min, wild-type cells 15.1 min”, the “time for fluorescence to leave the Golgi apparatus (retention time in the Golgi)” value worked out at 15.1 min.
